Laboratory results published in the NIST ThermoML archive (doi:10.1021/je200531k).
± gives the expanded uncertainty stated by the source.

Settings: Crystal; DTA

- Normal melting temperature: 315.30 ± 0.5 °C
SMILES: C=C(C)[C@@H]1CC[C@]2(C(=O)O)CC[C@]3(C)[C@H](CC[C@@H]4[C@@]5(C)CC[C@H](O)C(C)(C)[C@@H]5CC[C@]43C)[C@@H]12 [betulinic acid]
